Measurements from patent publication US7795263B2, “Pharmaceutical combination for and method of anesthetizing and immobilizing non-domesticated mammals” (Wildlife Laboratories, Inc., priority 2008, dated 2010).

System: captive white-tailed deer (Odocoileus virginianus)
Experiment: BAM-1 / BAM-2 in captive white-tailed deer with NTA antagonist reversal (Example 4)
Type: in vivo
Conditions: adult male not recovered after BAM-2 and NTA-1
Procedure: BAM was administered to captive white-tailed deer (Odocoileus virginianus) at two dose levels (BAM-1 and BAM-2) in an approved-protocol study, to evaluate efficacy, quality of anesthesia, and quality of recovery following administration of tolazoline, atipamezole, and naltrexone antagonists.
The deer of the study were housed in large (0.4-0.8 ha) forested outdoor pens and were fed 17% protein ration with fresh hay and water available ad libitum. The average ambient temperature at time of immobilization and anesthesia was 14.4° C. Temperatures ranged from −1.7 to 25.6° C. […]
Immediately after BAM injection, each deer was released into a 15×20 m observation pen where the time to first noticeable drug effect (e.g., stumbling, gait changes) was recorded, the sternal time (when deer collapsed without rising again) was recorded, the lateral time (when deer lowered head and became immobile) was recorded, and the approachable time (when deer remained immobile and seemed oblivious to its surroundings) was recorded. […]
The heart rate (determined by auscultation), respiration rate (determined by thoracic movements), rectal temperature, and hemoglobin saturation level were recorded at 0, 10, and 20 minutes after recumbency. […] Heart rate readings from pulse oximetry were compared to heart rates as determined by auscultation. […]

c1ccc(CC2=NCCN2)cc1 [tolazoline]
effect of subsequent IM injection of 250 mg tolazoline: led to recovery from anesthesia, with minimal ataxia
